# Results taken from PMC4917279 (Journal of Medicinal Chemistry, 2016).
# Assays:
# ADCK4 = molecular target: T1, ADCK4 (Homo sapiens, UniProt Q96D53); assay: KINOMEscan; format: binding; details: read-out: %Ctrl @ 1000 nM
# T1 construct: purchased DiscoveRx KINOMEscan
# AXL = molecular target: T2, AXL (Homo sapiens, UniProt P30530); assay: KINOMEscan; format: binding; details: read-out: %Ctrl @ 1000 nM
# T2 construct: purchased DiscoveRx KINOMEscan
# BMPR1B = molecular target: T3, BMPR1B (Homo sapiens, UniProt O00238); assay: KINOMEscan; format: binding; details: read-out: %Ctrl @ 1000 nM
# T3 construct: purchased DiscoveRx KINOMEscan
# BMPR2 = molecular target: T4, BMPR2 (Homo sapiens, UniProt Q13873); assay: KINOMEscan; format: binding; details: read-out: %Ctrl @ 1000 nM
# T4 construct: purchased DiscoveRx KINOMEscan
# CDC2L2 = molecular target: T5, CDC2L2 (Homo sapiens, UniProt Q9UQ88); assay: KINOMEscan; format: binding; details: read-out: %Ctrl @ 1000 nM
# T5 construct: purchased DiscoveRx KINOMEscan
# CDC2L5 = molecular target: T6, CDC2L5 (Homo sapiens, UniProt Q14004); assay: KINOMEscan; format: binding; details: read-out: %Ctrl @ 1000 nM
# T6 construct: purchased DiscoveRx KINOMEscan
# Protocol: (§1) 1.1. Table S1 KINOMEscan Data. The KINOMEscan was performed at DiscoveRx. For
# (§2) a more detailed description of this assay technology, see: Fabian, M. A.; Biggs, W.
# (§3) H., III; Treiber, D. K.; Atteridge, C. E.; Azimioara, M. D.; Benedetti, M. G.; Carter,
# (§4) T. A.; Ciceri, P.; Edeen, P. T.; Floyd, M.; Ford, J. M.; Galvin, M.; Gerlach, J. L.;
# (§5) Grotzfeld, R. M.; Herrgard, S.; Insko, D. E.; Insko, M. A.; Lai, A. G.; Lélias, J..M.;
# (§6) Mehta, S. A.; Milanov, Z. V.; Velasco, A. M.; Wodicka, L. M.; Patel, H. K.;
# (§7) Zarrinkar, P. P.; Lockhart, D. J. A small molecule–kinase interaction map for clinical
# (§8) Target Gene Symbol %Ctrl @ 1000 nM BAY-598
# (§9) ABL1(H396P)-nonphosphorylated 92
# (§10) ABL1(Q252H)-nonphosphorylated 66
# (§11) ABL1(T315I)-nonphosphorylated 77
# (§12) ABL1-nonphosphorylated 79
# PRP4 = molecular target: T7, PRP4 (Homo sapiens, UniProt Q13523); assay: KINOMEscan; format: binding; details: read-out: %Ctrl @ 1000 nM
# T7 construct: purchased DiscoveRx KINOMEscan
# Protocol: as §1, §2, §3, §4, §5, §6, §7, §8, §9, §10, §11, §12
# CDK4-cyclinD3 = molecular target: T8, CDK4-cyclinD3 (Homo sapiens, UniProt P11802); assay: KINOMEscan; format: binding; details: read-out: %Ctrl @ 1000 nM
# T8 construct: purchased DiscoveRx KINOMEscan
# CDKL1 = molecular target: T9, CDKL1 (Homo sapiens, UniProt Q00532); assay: KINOMEscan; format: binding; details: read-out: %Ctrl @ 1000 nM
# T9 construct: purchased DiscoveRx KINOMEscan
# CLK2 = molecular target: T10, CLK2 (Homo sapiens, UniProt P49760); assay: KINOMEscan; format: binding; details: read-out: %Ctrl @ 1000 nM
# T10 construct: purchased DiscoveRx KINOMEscan
# CSNK1D = molecular target: T11, CSNK1D (Homo sapiens, UniProt P48730); assay: KINOMEscan; format: binding; details: read-out: %Ctrl @ 1000 nM
# T11 construct: purchased DiscoveRx KINOMEscan
# T11 sequence (P48730 whole entry): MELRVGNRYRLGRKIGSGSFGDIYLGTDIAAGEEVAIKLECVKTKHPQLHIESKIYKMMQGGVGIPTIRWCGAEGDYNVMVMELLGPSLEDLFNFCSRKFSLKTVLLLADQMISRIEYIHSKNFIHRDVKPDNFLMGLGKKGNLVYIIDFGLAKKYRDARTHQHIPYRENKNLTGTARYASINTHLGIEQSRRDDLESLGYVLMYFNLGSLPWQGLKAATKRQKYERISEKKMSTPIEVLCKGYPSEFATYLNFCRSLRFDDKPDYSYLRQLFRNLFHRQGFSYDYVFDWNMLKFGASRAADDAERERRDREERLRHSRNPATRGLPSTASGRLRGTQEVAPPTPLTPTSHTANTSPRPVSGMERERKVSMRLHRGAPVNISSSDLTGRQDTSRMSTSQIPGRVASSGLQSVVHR
# FER = molecular target: T12, FER (Homo sapiens, UniProt P16591); assay: KINOMEscan; format: binding; details: read-out: %Ctrl @ 1000 nM
# T12 construct: purchased DiscoveRx KINOMEscan
# FES = molecular target: T13, FES (Homo sapiens, UniProt P07332); assay: KINOMEscan; format: binding; details: read-out: %Ctrl @ 1000 nM
# T13 construct: purchased DiscoveRx KINOMEscan
# FLT3 = molecular target: T14, FLT3 (Homo sapiens, UniProt P36888); assay: KINOMEscan; format: binding; details: read-out: %Ctrl @ 1000 nM
# T14 construct: purchased DiscoveRx KINOMEscan
# INSR = molecular target: T15, INSR (Homo sapiens, UniProt P06213); assay: KINOMEscan; format: binding; details: read-out: %Ctrl @ 1000 nM
# T15 construct: purchased DiscoveRx KINOMEscan
# INSRR = molecular target: T16, INSRR (Homo sapiens, UniProt P14616); assay: KINOMEscan; format: binding; details: read-out: %Ctrl @ 1000 nM
# T16 construct: purchased DiscoveRx KINOMEscan
# IRAK3 = molecular target: T17, IRAK3 (Homo sapiens, UniProt Q9Y616); assay: KINOMEscan; format: binding; details: read-out: %Ctrl @ 1000 nM
# T17 construct: purchased DiscoveRx KINOMEscan
# LRRK2(G2019S) = molecular target: T18, LRRK2(G2019S) (Homo sapiens, UniProt Q5S007, G2019S); assay: KINOMEscan; format: binding; details: read-out: %Ctrl @ 1000 nM
# T18 construct: purchased DiscoveRx KINOMEscan
# MAP3K1 = molecular target: T19, MAP3K1 (Homo sapiens, UniProt Q13233); assay: KINOMEscan; format: binding; details: read-out: %Ctrl @ 1000 nM
# T19 construct: purchased DiscoveRx KINOMEscan
# T19 sequence (Q13233 whole entry): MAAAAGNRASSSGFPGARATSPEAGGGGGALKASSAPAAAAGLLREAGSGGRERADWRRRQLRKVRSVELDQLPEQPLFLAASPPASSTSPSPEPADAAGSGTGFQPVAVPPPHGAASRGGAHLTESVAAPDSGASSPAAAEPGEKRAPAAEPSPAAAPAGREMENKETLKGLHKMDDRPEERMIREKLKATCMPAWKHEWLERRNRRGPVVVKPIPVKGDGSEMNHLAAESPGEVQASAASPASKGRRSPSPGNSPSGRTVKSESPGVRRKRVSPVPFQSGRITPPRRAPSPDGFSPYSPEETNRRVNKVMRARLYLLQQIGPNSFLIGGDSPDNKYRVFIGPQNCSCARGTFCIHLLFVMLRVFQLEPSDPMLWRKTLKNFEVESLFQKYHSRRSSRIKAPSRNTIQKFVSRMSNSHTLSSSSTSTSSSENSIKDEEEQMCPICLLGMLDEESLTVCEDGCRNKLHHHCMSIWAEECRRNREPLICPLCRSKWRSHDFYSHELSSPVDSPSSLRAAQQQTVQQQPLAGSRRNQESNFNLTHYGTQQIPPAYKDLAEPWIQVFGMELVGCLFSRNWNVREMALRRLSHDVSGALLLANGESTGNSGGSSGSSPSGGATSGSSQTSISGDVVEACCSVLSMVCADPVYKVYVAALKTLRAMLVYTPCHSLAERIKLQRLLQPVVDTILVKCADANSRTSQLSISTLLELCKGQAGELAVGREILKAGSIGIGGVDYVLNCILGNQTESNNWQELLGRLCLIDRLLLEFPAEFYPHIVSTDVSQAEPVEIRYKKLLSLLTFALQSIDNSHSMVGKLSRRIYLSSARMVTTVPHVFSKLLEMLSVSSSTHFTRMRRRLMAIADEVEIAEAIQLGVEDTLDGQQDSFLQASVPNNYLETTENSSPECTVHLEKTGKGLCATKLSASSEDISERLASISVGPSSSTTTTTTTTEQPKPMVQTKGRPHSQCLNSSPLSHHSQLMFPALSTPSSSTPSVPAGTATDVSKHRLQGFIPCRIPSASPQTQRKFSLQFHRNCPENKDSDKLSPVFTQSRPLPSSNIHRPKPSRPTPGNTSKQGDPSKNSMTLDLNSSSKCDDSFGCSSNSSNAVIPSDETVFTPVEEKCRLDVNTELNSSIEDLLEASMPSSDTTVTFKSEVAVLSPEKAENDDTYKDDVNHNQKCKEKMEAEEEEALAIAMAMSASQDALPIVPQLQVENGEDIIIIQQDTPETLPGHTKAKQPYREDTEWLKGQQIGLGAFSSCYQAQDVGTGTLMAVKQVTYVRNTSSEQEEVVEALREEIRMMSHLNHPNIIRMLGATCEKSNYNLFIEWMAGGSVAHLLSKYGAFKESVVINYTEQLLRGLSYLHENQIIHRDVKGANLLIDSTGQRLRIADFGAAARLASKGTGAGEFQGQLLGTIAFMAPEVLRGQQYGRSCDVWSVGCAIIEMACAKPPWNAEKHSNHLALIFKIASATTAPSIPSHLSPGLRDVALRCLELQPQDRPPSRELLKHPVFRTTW
# MAP3K15 = molecular target: T20, MAP3K15 (Homo sapiens, UniProt Q6ZN16); assay: KINOMEscan; format: binding; details: read-out: %Ctrl @ 1000 nM
# T20 construct: purchased DiscoveRx KINOMEscan
# MLK3 = molecular target: T21, MLK3 (Homo sapiens, UniProt Q16584); assay: KINOMEscan; format: binding; details: read-out: %Ctrl @ 1000 nM
# T21 construct: purchased DiscoveRx KINOMEscan
# MST3 = molecular target: T22, MST3 (Homo sapiens, UniProt Q9Y6E0); assay: KINOMEscan; format: binding; details: read-out: %Ctrl @ 1000 nM
# T22 construct: purchased DiscoveRx KINOMEscan
# NEK3 = molecular target: T23, NEK3 (Homo sapiens, UniProt P51956); assay: KINOMEscan; format: binding; details: read-out: %Ctrl @ 1000 nM
# T23 construct: purchased DiscoveRx KINOMEscan
# PAK3 = molecular target: T24, PAK3 (Homo sapiens, UniProt O75914); assay: KINOMEscan; format: binding; details: read-out: %Ctrl @ 1000 nM
# T24 construct: purchased DiscoveRx KINOMEscan
# PIK3C2B = molecular target: T25, PIK3C2B (Homo sapiens, UniProt O00750); assay: KINOMEscan; format: binding; details: read-out: %Ctrl @ 1000 nM
# T25 construct: purchased DiscoveRx KINOMEscan
# T25 sequence (O00750 whole entry): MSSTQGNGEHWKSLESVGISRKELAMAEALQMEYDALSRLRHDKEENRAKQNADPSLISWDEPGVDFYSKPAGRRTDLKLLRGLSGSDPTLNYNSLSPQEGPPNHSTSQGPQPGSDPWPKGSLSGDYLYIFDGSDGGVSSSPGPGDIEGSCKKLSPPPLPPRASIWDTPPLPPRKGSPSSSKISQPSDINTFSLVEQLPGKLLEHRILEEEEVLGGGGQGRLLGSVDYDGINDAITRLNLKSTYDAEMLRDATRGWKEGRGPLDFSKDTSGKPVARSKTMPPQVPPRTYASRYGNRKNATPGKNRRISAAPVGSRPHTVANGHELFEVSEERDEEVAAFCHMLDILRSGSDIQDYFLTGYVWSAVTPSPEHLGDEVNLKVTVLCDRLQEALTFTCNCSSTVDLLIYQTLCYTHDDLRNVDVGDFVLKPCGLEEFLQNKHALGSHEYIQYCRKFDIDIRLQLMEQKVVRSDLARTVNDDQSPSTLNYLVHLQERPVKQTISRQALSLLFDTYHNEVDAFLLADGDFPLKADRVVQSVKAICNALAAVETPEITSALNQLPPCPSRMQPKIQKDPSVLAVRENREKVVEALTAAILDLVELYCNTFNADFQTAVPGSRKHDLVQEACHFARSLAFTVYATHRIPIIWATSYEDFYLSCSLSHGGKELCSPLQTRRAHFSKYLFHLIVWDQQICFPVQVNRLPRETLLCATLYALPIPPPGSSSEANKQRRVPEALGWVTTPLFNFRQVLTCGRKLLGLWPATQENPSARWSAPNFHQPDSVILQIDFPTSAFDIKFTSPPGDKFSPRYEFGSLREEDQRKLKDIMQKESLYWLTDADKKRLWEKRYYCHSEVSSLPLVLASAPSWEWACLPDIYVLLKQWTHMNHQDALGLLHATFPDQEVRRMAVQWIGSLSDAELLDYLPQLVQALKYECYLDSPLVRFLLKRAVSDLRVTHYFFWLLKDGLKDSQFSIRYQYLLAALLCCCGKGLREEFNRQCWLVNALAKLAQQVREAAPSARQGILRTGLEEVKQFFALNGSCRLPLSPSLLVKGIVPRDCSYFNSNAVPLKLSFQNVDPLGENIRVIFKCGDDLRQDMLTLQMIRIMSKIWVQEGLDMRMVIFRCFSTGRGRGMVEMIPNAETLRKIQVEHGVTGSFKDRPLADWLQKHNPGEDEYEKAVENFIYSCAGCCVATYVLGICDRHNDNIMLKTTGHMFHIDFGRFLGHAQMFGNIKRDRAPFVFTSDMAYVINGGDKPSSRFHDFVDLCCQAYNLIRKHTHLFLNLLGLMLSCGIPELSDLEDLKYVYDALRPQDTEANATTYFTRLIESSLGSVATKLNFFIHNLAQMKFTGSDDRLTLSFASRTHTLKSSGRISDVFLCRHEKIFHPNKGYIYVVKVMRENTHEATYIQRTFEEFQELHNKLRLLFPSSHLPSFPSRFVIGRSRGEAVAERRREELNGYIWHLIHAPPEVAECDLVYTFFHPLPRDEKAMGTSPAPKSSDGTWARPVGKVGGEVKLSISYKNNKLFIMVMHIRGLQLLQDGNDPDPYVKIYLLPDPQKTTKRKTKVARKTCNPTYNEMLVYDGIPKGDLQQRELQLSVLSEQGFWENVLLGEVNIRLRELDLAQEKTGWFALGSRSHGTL
# PIK3CB = molecular target: T26, PIK3CB (Homo sapiens, UniProt P42338); assay: KINOMEscan; format: binding; details: read-out: %Ctrl @ 1000 nM
# T26 construct: purchased DiscoveRx KINOMEscan
# PIK4CB = molecular target: T27, PIK4CB (Homo sapiens, UniProt Q9UBF8); assay: KINOMEscan; format: binding; details: read-out: %Ctrl @ 1000 nM
# T27 construct: purchased DiscoveRx KINOMEscan
# PRKG1 = molecular target: T28, PRKG1 (Homo sapiens, UniProt Q13976); assay: KINOMEscan; format: binding; details: read-out: %Ctrl @ 1000 nM
# T28 construct: purchased DiscoveRx KINOMEscan
# PYK2 = molecular target: T29, PYK2 (Homo sapiens, UniProt Q14289); assay: KINOMEscan; format: binding; details: read-out: %Ctrl @ 1000 nM
# T29 construct: purchased DiscoveRx KINOMEscan
# RIPK5 = molecular target: T30, RIPK5 (Homo sapiens, UniProt Q6XUX3); assay: KINOMEscan; format: binding; details: read-out: %Ctrl @ 1000 nM
# T30 construct: purchased DiscoveRx KINOMEscan
# SRMS = molecular target: T31, SRMS (Homo sapiens, UniProt Q9H3Y6); assay: KINOMEscan; format: binding; details: read-out: %Ctrl @ 1000 nM
# T31 construct: purchased DiscoveRx KINOMEscan
# T31 sequence (Q9H3Y6 whole entry): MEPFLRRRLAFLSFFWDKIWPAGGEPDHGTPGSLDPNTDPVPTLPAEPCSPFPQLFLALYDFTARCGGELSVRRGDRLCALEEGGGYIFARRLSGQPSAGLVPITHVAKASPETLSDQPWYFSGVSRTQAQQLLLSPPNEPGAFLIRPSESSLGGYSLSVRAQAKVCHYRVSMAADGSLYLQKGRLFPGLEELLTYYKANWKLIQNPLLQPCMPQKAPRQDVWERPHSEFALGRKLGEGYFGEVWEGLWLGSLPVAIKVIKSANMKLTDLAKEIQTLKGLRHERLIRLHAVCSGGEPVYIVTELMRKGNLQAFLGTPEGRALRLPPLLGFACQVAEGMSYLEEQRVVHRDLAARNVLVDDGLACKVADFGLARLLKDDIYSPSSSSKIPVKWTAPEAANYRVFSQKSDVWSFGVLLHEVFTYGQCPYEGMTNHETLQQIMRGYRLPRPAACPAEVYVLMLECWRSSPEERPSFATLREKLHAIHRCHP
# SRPK3 = molecular target: T32, SRPK3 (Homo sapiens, UniProt Q9UPE1); assay: KINOMEscan; format: binding; details: read-out: %Ctrl @ 1000 nM
# T32 construct: purchased DiscoveRx KINOMEscan
# STK16 = molecular target: T33, STK16 (Homo sapiens, UniProt O75716); assay: KINOMEscan; format: binding; details: read-out: %Ctrl @ 1000 nM
# T33 construct: purchased DiscoveRx KINOMEscan
# TAOK1 = molecular target: T34, TAOK1 (Homo sapiens, UniProt Q7L7X3); assay: KINOMEscan; format: binding; details: read-out: %Ctrl @ 1000 nM
# T34 construct: purchased DiscoveRx KINOMEscan
# TGFBR1 = molecular target: T35, TGFBR1 (Homo sapiens, UniProt P36897); assay: KINOMEscan; format: binding; details: read-out: %Ctrl @ 1000 nM
# T35 construct: purchased DiscoveRx KINOMEscan
# TGFBR2 = molecular target: T36, TGFBR2 (Homo sapiens, UniProt P37173); assay: KINOMEscan; format: binding; details: read-out: %Ctrl @ 1000 nM
# T36 construct: purchased DiscoveRx KINOMEscan
# T36 sequence (P37173 23-567): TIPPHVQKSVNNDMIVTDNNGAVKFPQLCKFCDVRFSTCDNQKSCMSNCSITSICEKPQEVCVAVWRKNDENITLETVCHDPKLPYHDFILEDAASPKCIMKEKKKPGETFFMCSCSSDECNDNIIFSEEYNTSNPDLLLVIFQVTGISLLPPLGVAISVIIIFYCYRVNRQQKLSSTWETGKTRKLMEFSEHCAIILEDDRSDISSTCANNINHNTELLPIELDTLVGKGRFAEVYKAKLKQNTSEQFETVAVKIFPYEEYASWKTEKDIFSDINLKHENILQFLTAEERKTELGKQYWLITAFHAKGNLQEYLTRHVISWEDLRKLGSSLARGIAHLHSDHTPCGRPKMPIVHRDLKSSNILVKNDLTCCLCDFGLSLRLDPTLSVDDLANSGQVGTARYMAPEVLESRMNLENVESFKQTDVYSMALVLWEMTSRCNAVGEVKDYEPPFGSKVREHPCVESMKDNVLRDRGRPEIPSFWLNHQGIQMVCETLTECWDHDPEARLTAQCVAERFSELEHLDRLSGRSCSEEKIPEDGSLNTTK
# ULK1 = molecular target: T37, ULK1 (Homo sapiens, UniProt O75385); assay: KINOMEscan; format: binding; details: read-out: %Ctrl @ 1000 nM
# T37 construct: purchased DiscoveRx KINOMEscan
# SMYD2 = SMYD2 (Homo sapiens, UniProt Q9NRG4); assay: Endogenous p53 methylation in KYSE-150 cells (Western blot); details: 5 days
# SMYD2, sequence (Q9NRG4 whole entry): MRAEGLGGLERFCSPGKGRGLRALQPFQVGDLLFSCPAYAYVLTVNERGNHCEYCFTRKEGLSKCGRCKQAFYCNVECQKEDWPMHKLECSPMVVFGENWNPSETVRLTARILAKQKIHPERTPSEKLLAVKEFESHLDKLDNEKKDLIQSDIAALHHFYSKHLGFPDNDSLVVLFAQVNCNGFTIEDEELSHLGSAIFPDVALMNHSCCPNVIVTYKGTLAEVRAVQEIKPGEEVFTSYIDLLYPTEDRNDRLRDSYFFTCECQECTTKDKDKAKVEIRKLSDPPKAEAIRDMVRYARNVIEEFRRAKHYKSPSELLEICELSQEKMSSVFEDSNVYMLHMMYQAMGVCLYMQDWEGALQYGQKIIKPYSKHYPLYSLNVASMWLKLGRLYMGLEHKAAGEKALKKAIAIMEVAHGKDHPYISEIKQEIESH
smiles,measurement,setting,value
CCN(C(=O)CO)[C@H]1CN(/C(=N\C#N)Nc2cccc(OC(F)F)c2)N=C1c1ccc(Cl)c(Cl)c1 [(S)-4],remaining binding at 1 µM,ADCK4,81%
same,remaining binding at 1 µM,AXL,91%
same,remaining binding at 1 µM,BMPR1B,100%
same,remaining binding at 1 µM,BMPR2,100%
same,remaining binding at 1 µM,CDC2L2,92%
same,remaining binding at 1 µM,CDC2L5,81%
same,remaining binding at 1 µM,PRP4,90%
same,remaining binding at 1 µM,CDK4-cyclinD3,100%
same,remaining binding at 1 µM,CDKL1,76%
same,remaining binding at 1 µM,CLK2,97%
same,remaining binding at 1 µM,CSNK1D,100%
same,remaining binding at 1 µM,FER,68%
same,remaining binding at 1 µM,FES,92%
same,remaining binding at 1 µM,FLT3,92%
same,remaining binding at 1 µM,INSR,78%
same,remaining binding at 1 µM,INSRR,85%
same,remaining binding at 1 µM,IRAK3,93%
same,remaining binding at 1 µM,LRRK2(G2019S),98%
same,remaining binding at 1 µM,MAP3K1,100%
same,remaining binding at 1 µM,MAP3K15,69%
same,remaining binding at 1 µM,MLK3,69%
same,remaining binding at 1 µM,MST3,100%
same,remaining binding at 1 µM,NEK3,95%
same,remaining binding at 1 µM,PAK3,100%
same,remaining binding at 1 µM,PIK3C2B,100%
same,remaining binding at 1 µM,PIK3CB,100%
same,remaining binding at 1 µM,PIK4CB,100%
same,remaining binding at 1 µM,PRKG1,100%
same,remaining binding at 1 µM,PYK2,100%
same,remaining binding at 1 µM,RIPK5,90%
same,remaining binding at 1 µM,SRMS,94%
same,remaining binding at 1 µM,SRPK3,79%
same,remaining binding at 1 µM,STK16,84%
same,remaining binding at 1 µM,TAOK1,89%
same,remaining binding at 1 µM,TGFBR1,100%
same,remaining binding at 1 µM,TGFBR2,59%
same,remaining binding at 1 µM,ULK1,64%
same,Endogenous p53 methylation,SMYD2,significant reduction of methylation
